Experimental data: patent US10765114B2, “4-amino-6-(pyridyl and 2-substitutedphenyl)-picolinates and 6-amino-2-(pyridyl and 2-substitutedphenyl)-pyrimidine-4-carboxylates and their use as herbicides” (Dow AgroSciences LLC, priority 2013, dated 2020)
Where two headings read alike, the source gives them in different places.

Columns and labels:
[1] = system: Key Broadleaf Weed and Crop Species; experiment: Post-Emergent Test II (Table 5); format: in vivo; details: post-emergence, 336 h; for pest or weed control at 70 g/ha: application rate 70 (kg ai/ha; footnote: g ai/ha); for pest or weed control at 140 g/ha: application rate 140 (kg ai/ha; footnote: g ai/ha)
Procedure, shortened: (§1)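 Plants grown in a greenhouse (~15 h photoperiod, 23-29° C day) to first or second true leaf stage were sprayed post-emergence at 187 L/ha with compound in acetone/DMSO-based aqueous spray containing crop oil concentrate and surfactant, applied at a high rate plus ½× to 1/16× serial rates. Injury was scored visually 14 days later, 0-100% versus untreated plants.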

[2] = system: Key Grass and Sedge Weeds as well as Grass Crops; experiment: Post-Emergent Test II (Table 6); format: in vivo; details: post-emergence, 336 h, 14 days after application; for pest or weed control at 70 g/ha: 70 g ai/ha; for pest or weed control at 140 g/ha: 140 g ai/ha
Procedure, shortened: as §1

[3] = Abutilon theophrasti, ABUTH: velvetleaf (Abutilon theophrasti), read-out: Visual Growth Reduction (%) 14 Days After Application ABUTH
[4] = Amaranthus retroflexus, AMARE: redroot pigweed (Amaranthus retroflexus), read-out: Visual Growth Reduction (%) 14 Days After Application AMARE
[5] = Brassica napus, BRSSS: oilseed rape, canola (Brassica napus), read-out: Visual Growth Reduction (%) 14 Days After Application BRSSS
[6] = Chenopodium album, CHEAL: lambsquarters (Chenopodium album), read-out: Visual Growth Reduction (%) 14 Days After Application CHEAL
[7] = Euphorbia heterophylla, EPHHL: wild poinsettia (Euphorbia heterophylla), read-out: Visual Growth Reduction (%) 14 Days After Application EPHHL
[8] = Helianthus annuus, HELAN: sunflower (Helianthus annuus), read-out: Visual Growth Reduction (%) 14 Days After Application HELAN
[9] = Viola tricolor, VIOTR: wild pansy (Viola tricolor), read-out: Visual Growth Reduction (%) 14 Days After Application VIOTR
[10] = CYPSS, read-out: Visual Growth Reduction (%) 14 Days After Application CYPSS
[11] = DIGSA: crabgrass (Digitaria sanguinalis), read-out: Visual Growth Reduction (%) 14 Days After Application DIGSA
[12] = ECHSS, read-out: Visual Growth Reduction (%) 14 Days After Application ECHSS
[13] = ORYSS (crop), read-out: Visual Growth Reduction (%) 14 Days After Application ORYSS
[14] = SORVU: grain sorghum (Sorghum vulgare), read-out: Visual Growth Reduction (%) 14 Days After Application SORVU
[15] = TRZSS (crop), read-out: Visual Growth Reduction (%) 14 Days After Application TRZSS
[16] = ZEAMX: maize, corn (Zea mays), read-out: Visual Growth Reduction (%) 14 Days After Application ZEAMX
[17] = SETFA: giant foxtail (Setaria faberi), read-out: Visual Growth Reduction (%) 14 Days After Application SETFA

Cc1c(-c2nc(C(=O)O)c(Cl)c(N)c2F)ccc(C(F)(F)F)c1F [Compound 55]
pest or weed control at 70 g/ha [1, 3]: 45 to 59%
pest or weed control at 140 g/ha [1, 3]: 45 to 59%
pest or weed control at 70 g/ha [1, 4]: 0 to 29%
pest or weed control at 140 g/ha [1, 4]: 0 to 29%
pest or weed control at 70 g/ha [1, 5]: 30 to 44%
pest or weed control at 140 g/ha [1, 5]: 45 to 59%
pest or weed control at 70 g/ha [1, 6]: 60 to 74%
pest or weed control at 140 g/ha [1, 6]: 85 to 94%
pest or weed control at 70 g/ha [1, 7]: 0 to 29%
pest or weed control at 140 g/ha [1, 7]: 45 to 59%
pest or weed control at 70 g/ha [1, 8]: 85 to 94%
pest or weed control at 140 g/ha [1, 8]: 95 to 100%
pest or weed control at 70 g/ha [1, 9]: 0 to 29%
pest or weed control at 140 g/ha [1, 9]: 0 to 29%
pest or weed control at 70 g/ha [2, 10]: 0 to 29%
pest or weed control at 140 g/ha [2, 10]: 0 to 29%
pest or weed control at 70 g/ha [2, 11]: 0 to 29%
pest or weed control at 140 g/ha [2, 11]: 0 to 29%
pest or weed control at 70 g/ha [2, 12]: 0 to 29%
pest or weed control at 140 g/ha [2, 12]: 0 to 29%
pest or weed control at 70 g/ha [2, 13]: 0 to 29%
pest or weed control at 140 g/ha [2, 13]: 0 to 29%
pest or weed control at 70 g/ha [2, 14]: 0 to 29%
pest or weed control at 140 g/ha [2, 14]: 0 to 29%
pest or weed control at 70 g/ha [2, 15]: 0 to 29%
pest or weed control at 140 g/ha [2, 15]: 0 to 29%
pest or weed control at 70 g/ha [2, 16]: 45 to 59%
pest or weed control at 140 g/ha [2, 16]: 45 to 59%

COC(=O)c1nc(-c2ccc(C(F)(F)F)c(F)c2C)cc(N)c1Cl [Compound 9, methyl 4-amino-3-chloro-6-(3-fluoro-2-methyl-4-(trifluoromethyl)phenyl)picolinate]
pest or weed control at 70 g/ha [1, 3]: 85 to 94%
pest or weed control at 140 g/ha [1, 3]: 85 to 94%
pest or weed control at 70 g/ha [1, 4]: 0 to 29%
pest or weed control at 140 g/ha [1, 4]: 0 to 29%
pest or weed control at 70 g/ha [1, 5]: 0 to 29%
pest or weed control at 140 g/ha [1, 5]: 0 to 29%
pest or weed control at 70 g/ha [1, 6]: 85 to 94%
pest or weed control at 140 g/ha [1, 6]: 95 to 100%
pest or weed control at 70 g/ha [1, 7]: 95 to 100%
pest or weed control at 70 g/ha [1, 8]: 0 to 29%
pest or weed control at 140 g/ha [1, 8]: 85 to 94%
pest or weed control at 70 g/ha [1, 9]: 0 to 29%
pest or weed control at 140 g/ha [1, 9]: 0 to 29%
pest or weed control at 70 g/ha [2, 10]: 95 to 100%
pest or weed control at 140 g/ha [2, 10]: 95 to 100%
pest or weed control at 70 g/ha [2, 11]: 0 to 29%
pest or weed control at 140 g/ha [2, 11]: 0 to 29%
pest or weed control at 70 g/ha [2, 12]: 0 to 29%
pest or weed control at 140 g/ha [2, 12]: 0 to 29%
pest or weed control at 70 g/ha [2, 13]: 0 to 29%
pest or weed control at 140 g/ha [2, 13]: 0 to 29%
pest or weed control at 70 g/ha [2, 14]: 0 to 29%
pest or weed control at 140 g/ha [2, 14]: 30 to 44%
pest or weed control at 70 g/ha [2, 15]: 0 to 29%
pest or weed control at 140 g/ha [2, 15]: 0 to 29%
pest or weed control at 70 g/ha [2, 16]: 0 to 29%
pest or weed control at 140 g/ha [2, 16]: 30 to 44%

C=Cc1c(-c2cc(N)c(Cl)c(C(=O)OC)n2)ccc(Cl)c1F [Compound 79, methyl 4-amino-3-chloro-6-(4-chloro-3-fluoro-2-vinylphenyl)picolinate]
pest or weed control at 70 g/ha [1, 3]: 95 to 100%
pest or weed control at 140 g/ha [1, 3]: 0 to 29%
pest or weed control at 70 g/ha [1, 4]: 95 to 100%
pest or weed control at 140 g/ha [1, 4]: 95 to 100%
pest or weed control at 70 g/ha [1, 5]: 95 to 100%
pest or weed control at 140 g/ha [1, 5]: 95 to 100%
pest or weed control at 70 g/ha [1, 6]: 95 to 100%
pest or weed control at 140 g/ha [1, 6]: 95 to 100%
pest or weed control at 70 g/ha [1, 7]: 0 to 29%
pest or weed control at 140 g/ha [1, 7]: 0 to 29%
pest or weed control at 70 g/ha [1, 8]: 85 to 94%
pest or weed control at 140 g/ha [1, 8]: 85 to 94%
pest or weed control at 70 g/ha [1, 9]: 0 to 29%
pest or weed control at 140 g/ha [1, 9]: 0 to 29%
pest or weed control at 70 g/ha [2, 10]: 95 to 100%
pest or weed control at 140 g/ha [2, 10]: 95 to 100%
pest or weed control at 70 g/ha [2, 11]: 0 to 29%
pest or weed control at 140 g/ha [2, 11]: 0 to 29%
pest or weed control at 70 g/ha [2, 12]: 0 to 29%
pest or weed control at 140 g/ha [2, 12]: 0 to 29%
pest or weed control at 70 g/ha [2, 13]: 0 to 29%
pest or weed control at 140 g/ha [2, 13]: 0 to 29%
pest or weed control at 70 g/ha [2, 17]: 0 to 29%
pest or weed control at 140 g/ha [2, 17]: 0 to 29%
pest or weed control at 70 g/ha [2, 14]: 0 to 29%
pest or weed control at 140 g/ha [2, 14]: 30 to 44%
pest or weed control at 70 g/ha [2, 15]: 0 to 29%
pest or weed control at 140 g/ha [2, 15]: 0 to 29%
pest or weed control at 70 g/ha [2, 16]: 0 to 29%
pest or weed control at 140 g/ha [2, 16]: 0 to 29%
